Measured values: patent US4220577A, “Iodopropargyl pyridyl and picolinyl ethers and thioethers as paint fungicides” (Givaudan Corporation, priority 1979, dated 1980)
In brackets after ≈: the same amount, converted by molar mass.

Legend:
Type in all cases: cell-based
[1] = tested on: Staphylococcus aureus; test: 5-fold serial dilution test in agar, MIC, B1; details: 37° C., 48 hours, read-out: Minimum Inhibitory Concentration Range
Description: (§1) Antibacterial and antifungal activity were evaluated by a 5-fold serial dilution test in agar. In this test, compounds were prepared as 6% solutions in dimethylformamide or ethanol. The 6% solution was then 5-fold serially diluted in test tubes to give the desired concentrations when mixed with agar and poured into sterile Petri dishes. Trypticase glucose extract agar was used for the bacterial testing; mildew glucose agar for the fungal testing. The bacterial plates were spot inoculated with 24-hour nutrient broth cultures and incubated at 37° C. for 48 hours. The fungal plates were spot inoculated with spore suspensions and incubated at 28° C. for seven days. At the end of the incubation periods, all plates were examined for growth. The minimum inhibitory concentration (MIC) for each organism is expressed in Table I. In the ranges presented, growth is observed only at the lower concentration.
B1 Staphylococcus aureus

[2] = tested on: Aspergillus niger; test: 5-fold serial dilution test in agar, MIC, F1; details: 168 h, 28° C., seven days, read-out: Minimum Inhibitory Concentration Range
Description: as §1

[3] = tested on: Aureobasidium pullulans; test: 5-fold serial dilution test in agar, MIC, F4; details: 168 h, 28° C., seven days, read-out: Minimum Inhibitory Concentration Range
Description: as §1
F4 Aureobasidium pullulans

[4] = tested on: Proteus vulgaris; test: 5-fold serial dilution test in agar, MIC, B4; details: 37° C., 48 hours, read-out: Minimum Inhibitory Concentration Range
Description: as §1

[5] = tested on: Aspergillus oryzae; test: 5-fold serial dilution test in agar, MIC, F2; details: 168 h, 28° C., seven days, read-out: Minimum Inhibitory Concentration Range
Description: as §1

[6] = tested on: Escherichia coli; test: 5-fold serial dilution test in agar, MIC, B2; details: 37° C., 48 hours, read-out: Minimum Inhibitory Concentration Range
Description: as §1

[7] = tested on: Penicillium piscarium; test: 5-fold serial dilution test in agar, MIC, F3; details: 168 h, 28° C., seven days, read-out: Minimum Inhibitory Concentration Range
Description: as §1
F3 Penicillium piscarium

[8] = tested on: Bacillus subtilis; test: 5-fold serial dilution test in agar, MIC, B5; details: 37° C., 48 hours, read-out: Minimum Inhibitory Concentration Range
Description: as §1
B5 Bacillus subtilis 4 3 μg/ml

[9] = tested on: Pseudomonas aeruginosa; test: 5-fold serial dilution test in agar, MIC, B3; details: 37° C., 48 hours, read-out: Minimum Inhibitory Concentration Range
Description: as §1
B3 Pseudomonas aeruginosa

[10] = tested on: Aureobasidium pullulans (strain 1); test: Antifungal activity on painted surfaces, strain 1; set-up: key to Surface Growth: 0: No growth; 1: Slight growth; 2: Moderate growth; 3: Heavy growth; details: Strain 1, three weeks
Description: (§2) Any antifungal agent which can be used to prevent mildew on painted surfaces must be effective against Aureobasidium pullulans, the organism which is primarily responsible for mildew on painted surfaces. The effectiveness of the novel compounds was tested by incorporating the compound into an exterior latex paint, applying the paint to a surface, and testing the ability of the painted surface to prevent the growth of Aureobasidium pullulans. The tests were run as described below. The novel compounds were incorporated into an exterior vinyl acetate latex paint by mulling the compound into the paint. The compounds were tested in the paints at levels of 0.25% and 0.5%. One coat of this paint was applied to each side of a piece of Whatman #30 filter paper. Two one-inch squares were cut from the filter paper. Each square was centered on the agar surface of separate Petri dishes containing malt agar. One square was inoculated with a suspension of Aureobasidium pullulans (strain 1) which was an in-house strain used for routine antimicrobial testing. The second square was inoculated with a suspension of Aureobasidium pullulans (strain 2) which was grown from a culture obtained from the surface of a mildew infested panel. Squares painted with the same exterior vinyl acetate latex paint, but without the novel compounds of this invention, were run in parallel. The Petri dishes were then incubated at 27° C. and at greater than 90% humidity for a three week period and observed for zones of inhibition and surface growth.

[11] = tested on: Aureobasidium pullulans (strain 2); test: Antifungal activity on painted surfaces, strain 2; set-up: key to Surface Growth: 0: No growth; 1: Slight growth; 2: Moderate growth; 3: Heavy growth; key to Zone of Inhibition: 0: no zone; 1-5 mm; 2: 6-10 mm; 3: 11-15 mm; 4: 16-20 mm; 5: >20 mm; details: Strain 2, three weeks
Description: as §2

[12] = tested on: Aureobasidium pullulans (strain 2); test: Antifungal activity of painted birch blades after exposure to heat and light; set-up: key to Surface Growth: 0: No growth; 1: Slight growth; 2: Moderate growth; 3: Heavy growth; details: after light (300-400 nm) and heat (40° C.) four weeks
Description: Successful paint fungicides must be stable when exposed to the elements such as heat and light. Such stability was tested in the laboratory by exposing painted sticks to heat and light. The compounds of this invention were incorporated into an exterior vinyl acetate latex paint as described in Example XXI. Birch blades (tongue depressors) were painted (two coats) and continuously exposed to light (wavelength 300-400 nm) and heat (40° C.) for four consecutive weeks. At the end of the exposure time, one-inch squares of the painted birch blades were cut and tested according to the procedure of Example XXI, using strain 2.

[13] = 0.25% in vinyl acetate latex paint
[14] = 0.5% in vinyl acetate latex paint

SMILES	MIC [1] [µg/mL]	MIC [2] [µg/mL]	MIC [3] [µg/mL]	MIC [4] [µg/mL]	MIC [5] [µg/mL]	MIC [6] [µg/mL]	MIC [7] [µg/mL]	MIC [8] [µg/mL]	MIC [9] [µg/mL]	Surface Growth [10, 14]	Zone of Inhibition [10, 14]	Surface Growth ([12]; 0.25%)	other results
IC#CCOc1cccnc1 [drawing 2]	15 to 76 (≈ 57.9 to 293 µM)	0.03 to 0.12 (≈ 0.116 to 0.463 µM)	0.12 to 0.6 (≈ 0.463 to 2.32 µM)	3 to 15 (≈ 11.6 to 57.9 µM)	0.12 to 0.6 (≈ 0.463 to 2.32 µM)	76 to 384 (≈ 293 to 1480 µM)	0.12 to 0.6 (≈ 0.463 to 2.32 µM)	3 to 15 (≈ 11.6 to 57.9 µM)	> 1920	–	–	–	–
Cc1ccc(OCC#CI)cn1 [drawing 3]	> 1920	< 0.03	< 0.03	> 1920	< 0.03	> 1920	0.03 to 0.12 (≈ 0.11 to 0.439 µM)	> 1920	> 1920	–	–	–	–
Clc1ncccc1OCC#CI [drawing 4]	3 to 15 (≈ 10.2 to 51.1 µM)	< 0.03	0.12 to 0.6 (≈ 0.409 to 2.04 µM)	3 to 15 (≈ 10.2 to 51.1 µM)	0.03 to 0.12 (≈ 0.102 to 0.409 µM)	15 to 76 (≈ 51.1 to 259 µM)	0.12 to 0.6 (≈ 0.409 to 2.04 µM)	3 to 15 (≈ 10.2 to 51.1 µM)	> 1920	–	–	–	–
Cc1ccc(OCC#CI)c(Cl)n1 [drawing 5]	384 to 1920 (≈ 1250 to 6240 µM)	< 0.03	0.03 to 0.12 (≈ 0.0976 to 0.39 µM)	> 1920	0.03 to 0.12 (≈ 0.0976 to 0.39 µM)	> 1920	0.12 to 0.6 (≈ 0.39 to 1.95 µM)	15 to 76 (≈ 48.8 to 247 µM)	> 1920	–	–	–	–
Nc1ncccc1OCC#CI [drawing 6]	15 to 76 (≈ 54.7 to 277 µM)	0.12 to 0.6 (≈ 0.438 to 2.19 µM)	0.6 to 3 (≈ 2.19 to 10.9 µM)	3 to 15 (≈ 10.9 to 54.7 µM)	0.12 to 0.6 (≈ 0.438 to 2.19 µM)	15 to 76 (≈ 54.7 to 277 µM)	0.6 to 3 (≈ 2.19 to 10.9 µM)	15 to 76 (≈ 54.7 to 277 µM)	76 to 384 (≈ 277 to 1400 µM)	–	–	–	–
IC#CCSc1cccnc1 [drawing 7]	> 1920	15 to 76 (≈ 54.5 to 276 µM)	0.12 to 0.6 (≈ 0.436 to 2.18 µM)	> 1920	< 0.03	> 1920	0.12 to 0.6 (≈ 0.436 to 2.18 µM)	> 1920	> 1920	–	–	–	–
IC#CCOCc1cccnc1 [drawing 8]	76 to 384 (≈ 278 to 1410 µM)	0.03 to 0.12 (≈ 0.11 to 0.439 µM)	0.6 to 3 (≈ 2.2 to 11 µM)	15 to 76 (≈ 54.9 to 278 µM)	0.12 to 0.6 (≈ 0.439 to 2.2 µM)	76 to 384 (≈ 278 to 1410 µM)	0.12 to 0.6 (≈ 0.439 to 2.2 µM)	76 to 384 (≈ 278 to 1410 µM)	> 1920	–	–	–	–
IC#CCOc1ccncc1 [drawing 9]	384 to 1920 (≈ 1480 to 7410 µM)	< 0.03	0.12 to 0.6 (≈ 0.463 to 2.32 µM)	76 to 384 (≈ 293 to 1480 µM)	0.03 to 0.12 (≈ 0.116 to 0.463 µM)	384 to 1920 (≈ 1480 to 7410 µM)	0.03 to 0.12 (≈ 0.116 to 0.463 µM)	3 to 15 (≈ 11.6 to 57.9 µM)	> 1920	–	–	–	–
IC#CCOc1cccnc1 [drawing 11]	–	–	–	–	–	–	–	–	–	0	3 (11-15 mm)	–	Surface Growth [10, 13]: 0; Zone of Inhibition [10, 13]: 3 (11-15 mm)
Cc1ccc(OCC#CI)cn1 [drawing 12]	–	–	–	–	–	–	–	–	–	0	2 (6-10 mm)	–	Surface Growth [10, 13]: 0; Zone of Inhibition [10, 13]: 2 (6-10 mm); Surface Growth [11, 13]: 0; Zone of Inhibition [11, 13]: 1 (1-5 mm); Surface Growth [11, 14]: 0; Zone of Inhibition [11, 14]: 2 (6-10 mm)
Clc1ncccc1OCC#CI [drawing 13]	–	–	–	–	–	–	–	–	–	0	3 (11-15 mm)	–	Surface Growth [10, 13]: 0; Zone of Inhibition [10, 13]: 2 (6-10 mm); Surface Growth [11, 13]: 0; Zone of Inhibition [11, 13]: 1 (1-5 mm); Surface Growth [11, 14]: 0; Zone of Inhibition [11, 14]: 2 (6-10 mm)
Nc1ncccc1OCC#CI [drawing 14]	–	–	–	–	–	–	–	–	–	0	2 (6-10 mm)	–	Surface Growth [10, 13]: 0; Surface Growth [11, 13]: 0; Zone of Inhibition [11, 13]: 0; Surface Growth [11, 14]: 0; Zone of Inhibition [11, 14]: 0
IC#CCSc1cccnc1 [drawing 15]	–	–	–	–	–	–	–	–	–	0	3 (11-15 mm)	–	Surface Growth [10, 13]: 0; Zone of Inhibition [10, 13]: 2 (6-10 mm); Surface Growth [11, 13]: 0; Zone of Inhibition [11, 13]: 0; Surface Growth [11, 14]: 0; Zone of Inhibition [11, 14]: 2 (6-10 mm)
IC#CCOCc1cccnc1 [drawing 16]	–	–	–	–	–	–	–	–	–	0	5 (>20 mm)	–	Surface Growth [10, 13]: 0; Zone of Inhibition [10, 13]: 4 (16-20 mm); Surface Growth [11, 13]: 0; Zone of Inhibition [11, 13]: 3 (11-15 mm); Surface Growth [11, 14]: 0; Zone of Inhibition [11, 14]: 4 (16-20 mm)
IC#CCOc1ccncc1 [drawing 17]	–	–	–	–	–	–	–	–	–	0	2 (6-10 mm)	–	Surface Growth [11, 14]: 0; Zone of Inhibition [11, 14]: 1 (1-5 mm)
IC#CCSc1ccncc1 [drawing 18]	–	–	–	–	–	–	–	–	–	0	1 (1-5 mm)	–	Surface Growth [10, 13]: 0; Surface Growth [11, 13]: 0; Zone of Inhibition [11, 13]: 0; Surface Growth [11, 14]: 0; Zone of Inhibition [11, 14]: 0
IC#CCOc1cccnc1 [drawing 19]	–	–	–	–	–	–	–	–	–	–	–	0	Surface Growth ([12]; 0.5%): 0; Zone of Inhibition ([12]; 0.5%): 1 (1-5 mm)
Cc1ccc(OCC#CI)cn1 [drawing 20]	–	–	–	–	–	–	–	–	–	–	–	0	–
Clc1ncccc1OCC#CI [drawing 21]	–	–	–	–	–	–	–	–	–	–	–	0	–
Cc1ccc(OCC#CI)c(Cl)n1 [drawing 22]	–	–	–	–	–	–	–	–	–	–	–	–	Surface Growth ([12]; 0.5%): 0
Nc1ncccc1OCC#CI [drawing 23]	–	–	–	–	–	–	–	–	–	–	–	1	Surface Growth ([12]; 0.5%): 0
IC#CCSc1cccnc1 [drawing 24]	–	–	–	–	–	–	–	–	–	–	–	3	Surface Growth ([12]; 0.5%): 2
IC#CCOCc1cccnc1 [drawing 25]	–	–	–	–	–	–	–	–	–	–	–	0	Surface Growth ([12]; 0.5%): 0; Zone of Inhibition ([12]; 0.5%): 1 (1-5 mm)
IC#CCOc1ccncc1 [drawing 26]	–	–	–	–	–	–	–	–	–	–	–	2	Surface Growth ([12]; 0.5%): 2
IC#CCOc1ccccc1 [reference compound]	–	–	–	–	–	–	–	–	–	–	–	3	Surface Growth ([12]; 0.5%): 2
